Laboratory results reported in PubChem BioAssay (NCI).
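Five concentrations, 48 hours, 96-well plates. Definition used: TGI = concentration required for complete inhibition of growth.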

Columns and labels:
Experiment in all cases: NCI tumour cell line growth inhibition, 48 h
NCI-H226 lung = system: NCI-H226 lung
DU-145 prostate = system: DU-145 prostate
U251 CNS = system: U251 CNS
SNB-19 CNS = system: SNB-19 CNS
MCF7 breast = system: MCF7 breast
K-562 leukemia = system: K-562 leukemia
SF-295 CNS = system: SF-295 CNS
A498 renal = system: A498 renal
MDA-MB-435 = system: MDA-MB-435
NCI-H460 lung = system: NCI-H460 lung
HCT-15 colon = system: HCT-15 colon
HL-60(TB) leukemia = system: HL-60(TB) leukemia
786-0 renal = system: 786-0 renal
M14 melanoma = system: M14 melanoma
SK-OV-3 ovarian = system: SK-OV-3 ovarian
RXF 393 renal = system: RXF 393 renal
COLO 205 colon = system: COLO 205 colon
LOX IMVI melanoma = system: LOX IMVI melanoma
PC-3 prostate = system: PC-3 prostate
SNB-75 CNS = system: SNB-75 CNS
NCI-H23 lung = system: NCI-H23 lung
KM12 colon = system: KM12 colon
HS 578T breast = system: HS 578T breast
CCRF-CEM leukemia = system: CCRF-CEM leukemia
MDA-N = system: MDA-N
ACHN renal = system: ACHN renal
SK-MEL-2 melanoma = system: SK-MEL-2 melanoma
SF-539 CNS = system: SF-539 CNS
OVCAR-3 ovarian = system: OVCAR-3 ovarian
UACC-257 melanoma = system: UACC-257 melanoma
RPMI-8226 leukemia = system: RPMI-8226 leukemia
UACC-62 melanoma = system: UACC-62 melanoma
HT29 colon = system: HT29 colon
MDA-MB-231 breast = system: MDA-MB-231 breast
HOP-62 NSCLC = system: HOP-62 NSCLC
EKVX NSCLC = system: EKVX NSCLC
OVCAR-4 ovarian = system: OVCAR-4 ovarian
OVCAR-8 ovarian = system: OVCAR-8 ovarian
A549 NSCLC = system: A549 NSCLC
SR leukemia = system: SR leukemia
IGROV1 ovarian = system: IGROV1 ovarian
NCI/ADR-RES ovarian = system: NCI/ADR-RES ovarian
CAKI-1 renal = system: CAKI-1 renal
SN12C renal = system: SN12C renal
SK-MEL-28 melanoma = system: SK-MEL-28 melanoma
SF-268 CNS = system: SF-268 CNS
HCC-2998 colon = system: HCC-2998 colon
MALME-3M melanoma = system: MALME-3M melanoma
OVCAR-5 ovarian = system: OVCAR-5 ovarian
BT-549 breast = system: BT-549 breast
MOLT-4 leukemia = system: MOLT-4 leukemia
SW-620 colon = system: SW-620 colon
HOP-92 NSCLC = system: HOP-92 NSCLC
HCT-116 colon = system: HCT-116 colon
NCI-H522 lung = system: NCI-H522 lung
UO-31 renal = system: UO-31 renal
T-47D breast = system: T-47D breast
TK-10 renal = system: TK-10 renal
SK-MEL-5 melanoma = system: SK-MEL-5 melanoma

For `O=C(CCCCCCC(=O)Nc1cccnc1)NO`, the TGI (NCI-H226 lung) was > 100 µM, the TGI (DU-145 prostate) was > 31.5 µM and the TGI (U251 CNS) was > 54.8 µM. The TGI (SNB-19 CNS) was > 100 µM, the TGI (MCF7 breast) was > 100 µM and the TGI (K-562 leukemia) was > 100 µM. For the same molecule, the TGI (SF-295 CNS) was > 100 µM, the TGI (A498 renal) was > 100 µM and the TGI (MDA-MB-435) was > 42.6 µM. For the same molecule, the TGI (NCI-H460 lung) was > 100 µM, the TGI (HCT-15 colon) was > 100 µM and the TGI (HL-60(TB) leukemia) was 31.6 µM. For the same molecule, the TGI (786-0 renal) was > 100 µM, the TGI (M14 melanoma) was > 56 µM and the TGI (SK-OV-3 ovarian) was > 71.8 µM. For the same molecule, the TGI (RXF 393 renal) was 31 µM, the TGI (COLO 205 colon) was > 20.5 µM and the TGI (LOX IMVI melanoma) was 38.9 µM. The TGI (PC-3 prostate) was > 100 µM, the TGI (SNB-75 CNS) was > 100 µM and the TGI (NCI-H23 lung) was > 100 µM. The TGI (KM12 colon) was > 44.6 µM, the TGI (HS 578T breast) was > 95.3 µM and the TGI (CCRF-CEM leukemia) was > 100 µM. For the same molecule, the TGI (MDA-N) was > 25.6 µM, the TGI (ACHN renal) was > 92.2 µM and the TGI (SK-MEL-2 melanoma) was 17.9 µM. The TGI (SF-539 CNS) was > 100 µM, the TGI (OVCAR-3 ovarian) was 18.7 µM and the TGI (UACC-257 melanoma) was 87.7 µM. The TGI (RPMI-8226 leukemia) was > 29.4 µM, the TGI (UACC-62 melanoma) was 18.5 µM and the TGI (HT29 colon) was > 37.4 µM. For the same molecule, the TGI (MDA-MB-231 breast) was > 100 µM, the TGI (HOP-62 NSCLC) was > 100 µM and the TGI (EKVX NSCLC) was > 100 µM. For the same molecule, the TGI (OVCAR-4 ovarian) was > 100 µM, the TGI (OVCAR-8 ovarian) was > 57.5 µM and the TGI (A549 NSCLC) was > 100 µM. For the same molecule, the TGI (SR leukemia) was > 100 µM, the TGI (IGROV1 ovarian) was > 68.9 µM and the TGI (NCI/ADR-RES ovarian) was 10.1 µM. For the same molecule, the TGI (CAKI-1 renal) was > 100 µM, the TGI (SN12C renal) was > 38.8 µM and the TGI (SK-MEL-28 melanoma) was > 80.3 µM. The TGI (SF-268 CNS) was > 61 µM, the TGI (HCC-2998 colon) was 54.5 µM and the TGI (MALME-3M melanoma) was > 100 µM. For the same molecule, the TGI (OVCAR-5 ovarian) was > 32.1 µM, the TGI (BT-549 breast) was > 100 µM and the TGI (MOLT-4 leukemia) was > 100 µM. The TGI (SW-620 colon) was > 100 µM, the TGI (HOP-92 NSCLC) was > 100 µM and the TGI (HCT-116 colon) was > 100 µM. For the same molecule, the TGI (NCI-H522 lung) was 17.3 µM, the TGI (UO-31 renal) was > 100 µM and the TGI (T-47D breast) was 8.12 µM. For the same molecule, the TGI (TK-10 renal) was > 100 µM.

In the case of `CCOC(=O)C(O)(NC(=O)c1ccccc1F)C(F)(F)F` (centres undefined), the TGI (NCI-H226 lung) is reported as > 100 µM, the TGI (DU-145 prostate) is reported as > 100 µM and the TGI (U251 CNS) is reported as > 100 µM. The TGI (SNB-19 CNS) was > 100 µM, the TGI (MCF7 breast) was > 100 µM and the TGI (K-562 leukemia) was > 100 µM. The TGI (SF-295 CNS) was > 100 µM, the TGI (MDA-MB-435) was > 100 µM and the TGI (HCT-15 colon) was > 100 µM. For the same molecule, the TGI (HL-60(TB) leukemia) was > 100 µM, the TGI (M14 melanoma) was > 100 µM and the TGI (SK-OV-3 ovarian) was > 100 µM. The TGI (RXF 393 renal) was > 100 µM, the TGI (COLO 205 colon) was > 100 µM and the TGI (LOX IMVI melanoma) was > 100 µM. For the same molecule, the TGI (PC-3 prostate) was > 100 µM, the TGI (SNB-75 CNS) was > 100 µM and the TGI (NCI-H23 lung) was > 100 µM. For the same molecule, the TGI (KM12 colon) was > 100 µM, the TGI (HS 578T breast) was > 100 µM and the TGI (CCRF-CEM leukemia) was > 100 µM. For the same molecule, the TGI (MDA-N) was > 100 µM, the TGI (ACHN renal) was > 100 µM and the TGI (SK-MEL-2 melanoma) was > 100 µM. The TGI (SF-539 CNS) was > 100 µM, the TGI (OVCAR-3 ovarian) was > 100 µM and the TGI (UACC-257 melanoma) was > 100 µM. The TGI (RPMI-8226 leukemia) was > 100 µM, the TGI (UACC-62 melanoma) was > 100 µM and the TGI (HT29 colon) was > 100 µM. The TGI (MDA-MB-231 breast) was > 100 µM, the TGI (HOP-62 NSCLC) was > 100 µM and the TGI (EKVX NSCLC) was > 100 µM. For the same molecule, the TGI (OVCAR-4 ovarian) was > 100 µM, the TGI (OVCAR-8 ovarian) was > 100 µM and the TGI (A549 NSCLC) was > 100 µM. For the same molecule, the TGI (SR leukemia) was > 100 µM, the TGI (IGROV1 ovarian) was > 100 µM and the TGI (NCI/ADR-RES ovarian) was > 100 µM. The TGI (CAKI-1 renal) was > 100 µM, the TGI (SN12C renal) was > 100 µM and the TGI (SK-MEL-28 melanoma) was > 100 µM. For the same molecule, the TGI (SF-268 CNS) was > 100 µM, the TGI (HCC-2998 colon) was > 100 µM and the TGI (MALME-3M melanoma) was > 100 µM. For the same molecule, the TGI (OVCAR-5 ovarian) was > 100 µM, the TGI (BT-549 breast) was > 100 µM and the TGI (MOLT-4 leukemia) was > 100 µM. For the same molecule, the TGI (SW-620 colon) was > 100 µM, the TGI (HOP-92 NSCLC) was > 100 µM and the TGI (HCT-116 colon) was > 100 µM. For the same molecule, the TGI (SK-MEL-5 melanoma) was > 100 µM, the TGI (NCI-H522 lung) was > 100 µM and the TGI (UO-31 renal) was > 100 µM. For the same molecule, the TGI (T-47D breast) was > 100 µM and the TGI (TK-10 renal) was > 100 µM.
